Data published in patent US10287259B2, “Selenazolidine and thiazolidine compounds for treating cancer and other diseases” (The Penn State Research Foundation, priority 2016, dated 2019).

What was measured:
[1] = test system: NCI-60 Human Tumor Cell Lines; assay: NCI-60 Human Tumor Cell Lines Screen; type: cell-based
Description: AS-10 was submitted for National Cancer Institute's (NCI) Division of Cancer Treatment and Diagnosis (DCTD) for a single dose (10 μM for 72 h) screening on 60 different cancer cell lines (NCI-60 Human Tumor Cell Lines Screen, Developmental Therapeutic Program). The panel of cell lines included leukemia, non-small cell lung, colon, CNS, melanoma, ovarian, renal, prostate and breast cancer cell lines. […] AS-10 was screened against the same 60 cell lines at a dose of 0, 0.01, 0.1, 1, 10 and 100 μM for 72 h. […] Cell lines are grouped by the cancer type they represent. […] FIG. 16 is the tabular format of the effects of AS-10 on growth of all the tested cell lines.

Panc-1 cells = assay: Western blot analysis of Panc-1 lysates; type: cell-based
Description: Whole-cell lysates were made by subjecting AS-10 treated Panc-1 cells to RIPA lysis buffer (Thermo Scientific, USA) containing protease (Roche, USA) and phosphatase inhibitor cocktails (Sigma-Aldrich, USA) (Plano et al., 2016, J. Med. Chem. 1946-1959). Lysates were spun at 15,000 rpm for 10 minutes. Resulting supernatant was stored at −80° C. until use. NuPAGE gel 4-12% (Life Technologies, Carlsbad, Calif.) was used to resolve the lysates, followed by electro-transfer to PVDF membrane. After the transfer membrane was blocked with 5% non-fat milk and probed with different antibodies. Protein of interest were detected by using enhanced Chemiluminescent reagent (Life technologies, USA). Blots were stripped using Restore Western blot stripping buffer (Thermo Scientific, USA) to save time and samples.

pancreatic cancer cells = assay: MTT cell viability assay, pancreatic cancer (PC) cells; type: cell-based; details: Pancreatic cancer cell
Description: (§1) MTT (3-(4,5-dimethylthiazol-2-yl)-2,5-diphenyltetrazolium) assay was performed to determine the effect of AS-10 on cancer cell viability (Plano et al., 2016, J. Med. Chem. 1946-1959; Alcolea et al., 2012, Eur. J. Med. Chem. 113:134-144; Kumar et al., 2014, Eur. J. Med. Chem. 81:267-276). Briefly, 3×10^3 cells were treated with different concentrations of AS-10 in triplicate in a 96-well plate for different time points. MTT solution (20 μL of 5.0 mg/mL solution) was added to each well, three hours prior to termination time point and incubated at 37° C. Resultant formazan crystals, at termination time point, were dissolved in 50 μL DMSO. The plate was subjected to a 96-well multiscanner (Dynex Technologies, MRX Revelation; Chantilly, Va., USA) for measuring the optical densities at 570 nm and 630 nm. IC50 values were determined by performing non-linear regression using Graphpad Prism software.

NF-κB p65 = assay: Immunocytochemistry for NF-κB p65 localization; type: cell-based; details: Panc-1, 10 μM 6 h, TNF-α 30 min
Description: Immunocytochemistry was used to determine the translocation of p65 from cytoplasm to nucleus in presence of inflammatory stimuli either with vehicle or AS-10 (10 μM). In a 12 well plate, Panc-1 cells (1.6×10^5) were seeded on top of a small cover slip in DMEM medium. Cells were allowed to attach to the cover slip overnight at 37° C. incubator with 5% CO2. The next day, cells were treated with 10 μM AS-10 for 6 h and further stimulated with TNF-α (100 ng/mL, 3.9 nM) for 30 min. Exactly after 30 min plates were kept on ice and cells were fixed with 4% Formaldehyde Solution made in PBS for 15 min. Cells were washes three times with 1×PBS, followed by 1 h incubation in blocking medium (0.3% Triton X-100, 5% donkey serum, made in 1×PBS) at room temperature in dark. After blocking coverslips were incubated with primary antibody solution (primary antibody diluted 1:500 in 1% BSA solution containing 0.3% Triton X-100) over night at 4° C. Next day, primary antibody was removed and cover slips were washed three times with 1×PBS. Following incubation with 0.03% H2O2 for 15 minutes at room temperature in dark. After the incubation, secondary antibody (Alexa fluor 680) was added at dilution of 1:500 in 1% BSA containing 0.3% triton X-100 and further incubated for 1 hr. […]

[2] = test system: different cancer cell types (breast, colorectal, lung, melanoma, ovarian, prostate); assay: MTT assay in different cancer cell lines; type: cell-based; details: 24, 48 and 72 h
Description: as §1

[3] = test system: HCT116 colon cancer xenograft; assay: Colon cancer xenograft tumor inhibition; type: in vivo
Description: Athymic nude mice were used to evaluate the tumor inhibitory effect of AS-10 against a xenograft model of colon cancer. Approximately, 5×10^6 cells (HCT116) were inoculated into both left and right flanks of mice. After eight days, vehicle (DMSO) or AS-10 (45.2 mg/Kg) were injected via IP injection three times per week for 18 days.

[4] = test system: androgen receptor (AR) signaling in LNCaP cells; assay: AR / PSA and DNA damage response proteins in LNCaP cells; type: cell-based
NF-κB = assay: Electrophoretic mobility shift assay (EMSA); type: cell-based; details: Panc-1, 6 h pretreatment, TNF-α 30 min
Description: To determine NF-κB activation, Panc-1 (1×10^6) cells were treated with different doses of AS-10 for 6 h. Thirty minutes before termination cells were stimulated with 100 ng/mL TNF-α (which is about 3.9 nM in media after addition). At the end of thirty minutes, cells were immediately stored on ice. Nuclear and cytosolic extracts were prepared as described previously (Pandey et al., 2007, J. Biol. Chem. 282: 17340-17350). Nuclear lysates were subjected to EMSA following the protocol (Pandey et al., 2007, J. Biol. Chem. 282: 17340-17350). The dried gels were exposed to X-ray films at −80° C. for exposure.

## CC(=O)Oc1ccccc1C(=O)/N=C1\[Se]CCN1C(=O)c1ccccc1OC(C)=O [AS-10, 2-((3-(2-acetoxybenzoyl)-1,3-selenazolidin-2-ylidene)carbamoyl)phenyl acetate]
[1]; 0.01-100 μM, 72 h
  selectivity among NCI-60 cell types: most cytotoxic towards CNS, melanoma and renal cancer cell lines
[1]; single dose 10 μM for 72 h
  cell growth of NCI-60 cell lines: inhibited cell growth of all 60 cell lines
Panc-1 cells
  cleaved caspase 8 (active): not detected
Panc-1 cells; 10 μM
  cleavage of caspase 9: profound cleavage
Panc-1 cells; 10 μM, increasing time points
  acetylation of histones H3 and H4: able to acetylate histones
Panc-1 cells; 10 μM, from 6 h for p21 and 12 h for p27
  cell cycle arrest proteins p21 and p27: increase
Panc-1 cells; Panc-1, 48 h, low dose AS-10 2.5 μM, gemcitabine 50 μM
  PARP cleavage: no effect on PARP cleavage
Panc-1 cells; cytosolic lysates, TNF-α stimulation, increasing dose
  IκBα degradation: IκBα is not degraded
Panc-1 cells; increasing concentration, 24 h
  active caspase 3 (cleaved caspase 3) and cleaved PARP: increase
Panc-1 cells; time dependent
  expression of Bcl-xL and Mcl-1: inhibited the expression
Pancreatic cancer cells; in vitro, read-out: EC50, reduction of PC cell growth
  EC50: 2.5 to 5 µM
Pancreatic cancer cells; read-out: IC50, cytotoxicity to pancreatic cancer cells
  IC50: 500 to 2500 nM
NF-κB p65
  translocation of p65 to the nucleus: unable to translocate to the nucleus
[2]
  growth of different cancer cell types: effectively inhibited growth
[3]; 45.2 mg/Kg IP three times per week for 18 days
  systemic toxicity from body weights of mice: no apparent no systemic toxicity
[3]; 45.2 mg/kg IP three times per week for 18 days, athymic nude mice
  tumor growth inhibition compared to vehicle treated mice: ~70%
[4]
  prostate specific antigen (PSA) in cell culture media of LnCAP cells: inhibited
[4]; LNCaP
  androgen receptor (AR) level: down regulated
  expression of p21 and p-H2A.X: increased the expression
[4]; LNCaP, concentration-dependent
  protein level of AR and PSA (Western blot): decreased protein level
NF-κB
  NF-κB DNA binding (EMSA band): NF-κB band faded away in a dose dependent manner
